According to patent US20250170130A1, “MODULATORS OF MYC FAMILY PROTO-ONCOGENE PROTEIN” (Nalo Therapeutics, priority 2022, published 2025):
Where two headings read alike, the source gives them in different places.

What was measured:
[1] = biological target: T1, MycN (Homo sapiens, UniProt P04198); assay: Degradation of MycN protein in SK-N-BE(2) cells, JESS/Western blot of lysates; assay type: cell-based; conditions: SKNBE2, 24 h; for Dmax at 6 µM: read-out: % Degradation of MycN (SKNBE2) 24 h, 6 μM; for Dmax at 0.5 µM: read-out: % Degradation of MycN (SKNBE2) 24 h, 0.5 μM; for Dmax at 1 µM: read-out: % Degradation of MycN (SKNBE2) 24 h, 1 μM; for Dmax at 3 µM: read-out: % Degradation of MycN (SKNBE2) 24 h, 3 μM
T1 construct: endogenous in cells; host or cells: SK-N-BE(2)
T1 sequence (P04198 1-464): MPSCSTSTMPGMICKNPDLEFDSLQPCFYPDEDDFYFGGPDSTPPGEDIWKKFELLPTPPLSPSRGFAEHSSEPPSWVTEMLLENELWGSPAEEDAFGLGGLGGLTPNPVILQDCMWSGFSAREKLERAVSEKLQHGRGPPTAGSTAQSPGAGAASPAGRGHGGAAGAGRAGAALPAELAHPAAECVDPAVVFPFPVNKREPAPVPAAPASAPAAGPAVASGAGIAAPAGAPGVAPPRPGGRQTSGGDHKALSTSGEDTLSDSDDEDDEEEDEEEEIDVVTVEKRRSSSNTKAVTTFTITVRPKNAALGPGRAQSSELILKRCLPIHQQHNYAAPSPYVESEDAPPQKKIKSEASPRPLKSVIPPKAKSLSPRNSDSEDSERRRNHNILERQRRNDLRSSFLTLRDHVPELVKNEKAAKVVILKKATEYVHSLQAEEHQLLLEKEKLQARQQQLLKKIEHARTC
Description: (§1) For L363 cells (suspension), 1E6 cells were plated into each well of a 6 well plate. For SK-N-BE(2) cells (adherent), 5E5 cells were plated into each well of a 6 well dish. Cells were cultured for 24 hrs then treated with exemplary compounds at 0.1, 0.5, 1.0, 3.0 and 6.0 mM final assay concentrations plus DMSO control. All compounds were diluted to 10 mM in DMSO. Cells were treated with the compound for 24 hrs, then for both cell types, media containing cells were removed from wells into a 15 ml centrifuge tube, and remaining adherent SK-N-BE(2) cells were also scraped from the wells into the appropriate tubes. Tubes were centrifuged, cells were washed with PBS then re-centrifuged to pellet cells. A RIPA buffer cocktail was added to the cells on ice for 5 mins. Cell lysates were clarified by centrifugation and stored at −80 degrees until required. BCA assay was performed on each lysate to determine the protein concentration.
(§2) Once an appropriate lysate concentration and antibody concentration was determined, samples were screened in the JESS technology (Protein Simple, San Jose, CA—https://www.proteinsimple.com/jess.html).
(§3) Target protein antibodies (n-myc and c-myc) were detected in the chemi-luminescence channel and loading controls (tubulin and GAPDH) were detected using a Near Infra Red (NIR) labeled secondary antibody.
For SK-N-EB2 adherent cells, 5E5 cells in 1.9 mls media were plated into 6 well dishes and incubated for 24 hrs. Exemplary compounds were added (100 ul, 1 in 20 dilution in media) to each well (final assay concentration 6, 3, 1 and […]) together with DMSO control wells and incubated for 24 hrs. Cells were scrapped off the plate, centrifuged, washed with PBS, centrifuged, then a RIPA buffer cocktail added to the cells (100 ul), centrifuged and stored at −80 for later analysis. For L363 suspension cells, 1E6 cells were plated into 24 well dishes (950 ul media) and incubated for 24 hrs. Exemplary compounds were added (50 ul, 1 in 20 dilution in media) to each well (final assay concentration 6, 3, 1 and […]) together with DMSO control wells and incubated for 24 hrs. Cells were aspirated into tubes, centrifuged, washed with PBS, centrifuged, then a RIPA buffer cocktail added to the cells (100 ul), centrifuged and stored at −80 for later analysis.
(§4) For Western blot, a BCA (total protein) assay was run on all samples, these were then run in batches of 5 compounds plus control (DMSO) on each Western blot run—n-myc and c-myc were run in separate experiments in the chemiluminescence channel. Both tubulin and GAPDH were run as loading controls in all lanes in the near infra red channel.

[2] = biological target: T2, MycC (Homo sapiens, UniProt P01106); assay: Degradation of MycC protein in L363 cells, JESS/Western blot of lysates; assay type: cell-based; conditions: L-363, 24 h; for Dmax at 0.5 µM: read-out: % Degradation of MycC (L-363) 24 h, 0.5 μM; for Dmax at 1 µM: read-out: % Degradation of MycC (L-363) 24 h, 1 μM; for Dmax at 3 µM: read-out: % Degradation of MycC (L-363) 24 h, 3 μM; for Dmax at 6 µM: read-out: % Degradation of MycC (L-363) 24 h, 6 μM
T2 construct: endogenous in cells; host or cells: L363
Description: as §1, with “Cells were cultured for 24 hrs then treated with exemplary compounds at 0.1, 0.5, 1.0, 3.0 and 6.0 mM final assay concentrations plus DMSO control.” left out
as §2, §3
For SK-N-EB2 adherent cells, 5E5 cells in 1.9 mls media were plated into 6 well dishes and incubated for 24 hrs. […] Cells were scrapped off the plate, centrifuged, washed with PBS, centrifuged, then a RIPA buffer cocktail added to the cells (100 ul), centrifuged and stored at −80 for later analysis. For L363 suspension cells, 1E6 cells were plated into […] (950 ul media) and incubated for 24 hrs. […] Cells were aspirated into tubes, centrifuged, washed with PBS, centrifuged, then a RIPA buffer cocktail added to the cells (100 ul), centrifuged and stored at −80 for later analysis.
as §4

T2 sequence (P01106 whole entry): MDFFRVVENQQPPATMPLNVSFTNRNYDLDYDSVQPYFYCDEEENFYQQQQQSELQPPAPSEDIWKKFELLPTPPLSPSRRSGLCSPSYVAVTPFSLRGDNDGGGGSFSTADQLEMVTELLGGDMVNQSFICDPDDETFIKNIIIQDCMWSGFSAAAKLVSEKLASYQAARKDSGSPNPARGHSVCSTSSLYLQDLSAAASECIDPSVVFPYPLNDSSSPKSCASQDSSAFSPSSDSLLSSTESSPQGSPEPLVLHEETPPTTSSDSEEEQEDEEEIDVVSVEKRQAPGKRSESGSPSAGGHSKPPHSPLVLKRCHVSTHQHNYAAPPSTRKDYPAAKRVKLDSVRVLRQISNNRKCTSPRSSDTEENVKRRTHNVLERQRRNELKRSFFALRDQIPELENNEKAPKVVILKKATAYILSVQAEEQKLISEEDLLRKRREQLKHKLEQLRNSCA

| Dmax at 6 µM ([1]; SKNBE2 cells, 24 h, 6 μM) | Dmax at 0.5 µM ([1]; SKNBE2 cells, 24 h, 0.5 μM) | Dmax at 1 µM ([1]; SKNBE2 cells, 24 h, 1 μM) | Dmax at 3 µM ([1]; SKNBE2 cells, 24 h, 3 μM) | Dmax at 6 µM ([2]; L-363 cells, 24 h, 6 μM) | Structure (SMILES) | other results |
| --- | --- | --- | --- | --- | --- | --- |
| 80 to 100% | 20 to 49% | 50 to 79% | 80 to 100% | 80 to 100% | FC(F)(F)CNCC12CC(C1)N(c1nccc(Nc3cc(C4CCCC4)[nH]n3)n1)C2 [Compound 71, N-(5-Cyclopentyl-1H-pyrazol-3-yl)-2-[4-[(2,2,2-trifluoroethylamino)methyl]-2-azabicyclo[2.1.1]hexan-2-yl]pyrimidin-4-amine] | Dmax at 0.5 µM ([2]; L-363 cells, 24 h): 20 to 49%; Dmax at 1 µM ([2]; L-363 cells, 24 h, 1 μM): 80 to 100%; Dmax at 3 µM ([2]; L-363 cells, 24 h, 3 μM): 80 to 100% |
| – | – | – | – | – | N#CC1(CN)CCCN(c2nccc(Nc3cc(C4CC4)[nH]n3)n2)C1 (stereo not shown) [Compound 119, 3-(Aminomethyl)-1-[4-[(5-cyclopropyl-1H-pyrazol-3-yl)amino]pyrimidin-2-yl]piperidine-3-carbonitrile] | Dmax at 0.5 µM [1]: 50 to 79%; Dmax at 1 µM [1]: 50 to 79%; Dmax at 3 µM [1]: 80 to 100%; Dmax at 6 µM [1]: 80 to 100%; Dmax at 1 µM [2]: 50 to 79%; Dmax at 3 µM [2]: 80 to 100%; Dmax at 6 µM [2]: 80 to 100% |
| 80 to 100% | 20 to 49% | 20 to 49% | 50 to 79% | 80 to 100% | NCC1CN(c2nccc(Nc3cc(C4CCCC4)[nH]n3)n2)CC1(F)F (stereo not shown) [Compound 125, 2-[4-(Aminomethyl)-3,3-difluoro-pyrrolidin-1-yl]-N-(5-cyclopentyl-1H-pyrazol-3-yl)pyrimidin-4-amine] | Dmax at 0.5 µM ([2]; L-363 cells, 24 h): 20 to 49%; Dmax at 1 µM ([2]; L-363 cells, 24 h, 1 μM): 20 to 49% |
| 80 to 100% | 20 to 49% | 20 to 49% | 80 to 100% | 80 to 100% | CC1(NCC23CC(C2)N(c2nccc(Nc4cc(C5CCCC5)[nH]n4)n2)C3)COC1 [Compound 69, N-(5-Cyclopentyl-1H-pyrazol-3-yl)-2-[4-[[(3-methyloxetan-3-yl)amino]methyl]-2-azabicyclo[2.1.1]hexan-2-yl]pyrimidin-4-amine] | Dmax at 0.5 µM ([2]; L-363 cells, 24 h): < 20%; Dmax at 3 µM ([2]; L-363 cells, 24 h, 3 μM): 80 to 100% |
| 50 to 79% | 20 to 49% | 20 to 49% | 50 to 79% | – | CN(C)C[C@@H]1CCN(c2nccc(Nc3cc(C4CC4)[nH]n3)n2)C1 (stereo in doubt) [Compound 33, N-(5-Cyclopropyl-1H-pyrazol-3-yl)-2-[rac-(3S)-3-[(dimethylamino)methyl]pyrrolidin-1-yl]pyrimidin-4-amine] | – |
| 80 to 100% | 20 to 49% | 20 to 49% | 50 to 79% | 50 to 79% | c1cc(Nc2cc(C3CCCC3)[nH]n2)nc(N2CC3(CN4CCCC4)CC2C3)n1 [Compound 75, N-(5-Cyclopentyl-1H-pyrazol-3-yl)-2-[4-(pyrrolidin-1-ylmethyl)-2-azabicyclo[2.1.1]hexan-2-yl]pyrimidin-4-amine] | – |
| 50 to 79% | < 20% | < 20% | 20 to 49% | < 20% | CN(C)CCCNc1nccc(Nc2cc(C3CC3)[nH]n2)n1 [Compound 20, N4-(5-Cyclopropyl-1H-pyrazol-3-yl)-N2-[3-(dimethylamino)propyl]pyrimidine-2,4-diamine] | – |
| 20 to 49% | – | < 20% | – | – | OC1CN(CC23CC(C2)N(c2nccc(Nc4cc(C5CCCC5)[nH]n4)n2)C3)C1 [Compound 70] | – |
| < 20% | – | – | – | – | CN1CC(C2CN(c3nccc(Nc4cc(C5CC5)[nH]n4)n3)C2)C1 [Compound 46, N-(5-Cyclopropyl-1H-pyrazol-3-yl)-2-[3-(1-methylazetidin-3-yl)azetidin-1-yl]pyrimidin-4-amine] | – |
| < 20% | – | – | – | – | CNCCCNc1nccc(Nc2cc(C3CC3)[nH]n2)n1 [Compound 34, N^4-(5-cyclopropyl-1H-pyrazol-3-yl)-N^2-[3-(methylamino)propyl]pyrimidine-2,4-diamine] | – |
| 50 to 79% | 20 to 49% | 20 to 49% | 50 to 79% | – | CNC[C@H]1CN(c2nccc(Nc3cc(C4CCCC4)[nH]n3)n2)CCO1 [Compound 190, N-(5-Cyclopentyl-1H-pyrazol-3-yl)-2-[(2S)-2-(methylaminomethyl)morpholin-4-yl]pyrimidin-4-amine] | – |
| 80 to 100% | 20 to 49% | 20 to 49% | 50 to 79% | – | CS(=O)(=O)CCCNCC12CC(C1)N(c1nccc(Nc3cc(C4CCCC4)[nH]n3)n1)C2 [Compound 74, N-(5-Cyclopentyl-1H-pyrazol-3-yl)-2-[4-[(3-methylsulfonylpropylamino)methyl]-2-azabicyclo[2.1.1]hexan-2-yl]pyrimidin-4-amine] | – |

| Structure (SMILES) | Dmax at 6 µM ([1]; SKNBE2 cells, 24 h, 6 μM) | Dmax at 0.5 µM ([1]; SKNBE2 cells, 24 h, 0.5 μM) | Dmax at 1 µM ([1]; SKNBE2 cells, 24 h, 1 μM) | Dmax at 3 µM ([1]; SKNBE2 cells, 24 h, 3 μM) | Dmax at 6 µM ([2]; L-363 cells, 24 h, 6 μM) | other results |
| --- | --- | --- | --- | --- | --- | --- |
| CN1C[C@@H]2CN(c3nccc(Nc4cc(C5CC5)[nH]n4)n3)C[C@@H]21 [Compound 52, N-(5-cyclopropyl-1H-pyrazol-3-yl)-2-[(1R,5R)-6-methyl-3,6-diazabicyclo[3.2.0]heptan-3-yl]pyrimidin-4-amine] | < 20% | – | – | – | – | – |
| CN1C[C@@H]2CN(c3nccc(Nc4cc(C5CC5)[nH]n4)n3)C[C@@H]2C1 [Compound 15, 2-[rac-(3aR,6aS)-2-methyl-1,3,3a,4,6,6a-hexahydropyrrolo[3,4-c]pyrrol-5-yl]-N-(5-cyclopropyl-1H-pyrazol-3-yl)pyrimidin-4-amine] | 80 to 100% | 20 to 49% | 20 to 49% | 50 to 79% | 20 to 49% | Dmax at 0.5 µM ([2]; L-363 cells, 24 h): < 20%; Dmax at 1 µM ([2]; L-363 cells, 24 h, 1 μM): 20 to 49%; Dmax at 3 µM ([2]; L-363 cells, 24 h, 3 μM): 20 to 49% |
